Source: the NIST ThermoML archive (doi:10.1021/acs.jced.7b00788)
Numbers after ± are expanded uncertainties.

Test: xn = mol fraction of the nth substance listed
Settings: 100 kPa, Liquid; for viscosity: Concentric cylinders viscometry; for mass density: Vibrating tube method

`CCOP(=O)([O-])OCC.CCn1cc[n+](C)c1` [1-ethyl-3-methylimidazolium diethyl phosphate] + O gave a viscosity (293.15 K, x2 = 0.012) of 540 ± 30 mPa·s, a viscosity (293.15 K, x2 = 0.061) of 513 ± 28 mPa·s and a viscosity (293.15 K, x2 = 0.123) of 487 ± 26 mPa·s. The viscosity (293.15 K, x2 = 0.183) was 462 ± 25 mPa·s, the viscosity (293.15 K, x2 = 0.259) was 422 ± 22 mPa·s and the viscosity (293.15 K, x2 = 0.502) was 202 ± 10 mPa·s. For the same compound, the viscosity (293.15 K, x2 = 0.765) was 51.1 ± 2.7 mPa·s, the viscosity (293.15 K, x2 = 0.88) was 12.5 ± 0.9 mPa·s and the mass density (293.15 K, x2 = 0.012) was 1151.2 ± 1.2 kg/m3. For the same compound, the mass density (293.15 K, x2 = 0.061) was 1151.7 ± 1.1 kg/m3, the mass density (293.15 K, x2 = 0.123) was 1152.1 ± 1 kg/m3 and the mass density (293.15 K, x2 = 0.183) was 1152.4 ± 1 kg/m3. For the same compound, the mass density (293.15 K, x2 = 0.259) was 1153 ± 0.9 kg/m3, the mass density (293.15 K, x2 = 0.502) was 1154.6 ± 0.7 kg/m3 and the mass density (293.15 K, x2 = 0.765) was 1150.2 ± 0.6 kg/m3. For the same compound, the mass density (293.15 K, x2 = 0.88) was 1124 ± 1.7 kg/m3, the viscosity (303.15 K, x2 = 0.012) was 274 ± 15 mPa·s and the viscosity (303.15 K, x2 = 0.061) was 262 ± 14 mPa·s. For the same compound, the viscosity (303.15 K, x2 = 0.123) was 250 ± 14 mPa·s, the viscosity (303.15 K, x2 = 0.183) was 238 ± 13 mPa·s and the viscosity (303.15 K, x2 = 0.259) was 219 ± 12 mPa·s. It also gave a viscosity (303.15 K, x2 = 0.502) of 111 ± 6 mPa·s, a viscosity (303.15 K, x2 = 0.765) of 31.2 ± 1.5 mPa·s and a viscosity (303.15 K, x2 = 0.88) of 8.35 ± 0.44 mPa·s. It also gave a mass density (303.15 K, x2 = 0.012) of 1144.2 ± 1.2 kg/m3, a mass density (303.15 K, x2 = 0.061) of 1144.7 ± 1.1 kg/m3 and a mass density (303.15 K, x2 = 0.123) of 1145.2 ± 1 kg/m3. For the same compound, the mass density (303.15 K, x2 = 0.183) was 1145.5 ± 0.9 kg/m3, the mass density (303.15 K, x2 = 0.259) was 1146.1 ± 0.9 kg/m3 and the mass density (303.15 K, x2 = 0.502) was 1147.8 ± 0.7 kg/m3. The mass density (303.15 K, x2 = 0.765) was 1143.1 ± 0.6 kg/m3, the mass density (303.15 K, x2 = 0.88) was 1116.7 ± 1.4 kg/m3 and the viscosity (313.15 K, x2 = 0.012) was 154 ± 8 mPa·s. The viscosity (313.15 K, x2 = 0.061) was 148 ± 7 mPa·s, the viscosity (313.15 K, x2 = 0.123) was 141 ± 7 mPa·s and the viscosity (313.15 K, x2 = 0.183) was 135 ± 7 mPa·s. It also gave a viscosity (313.15 K, x2 = 0.259) of 125 ± 6 mPa·s, a viscosity (313.15 K, x2 = 0.502) of 65.8 ± 3.1 mPa·s and a viscosity (313.15 K, x2 = 0.765) of 20.3 ± 1 mPa·s. The viscosity (313.15 K, x2 = 0.88) was 5.91 ± 0.3 mPa·s, the mass density (313.15 K, x2 = 0.012) was 1137.4 ± 1.2 kg/m3 and the mass density (313.15 K, x2 = 0.061) was 1137.9 ± 1.1 kg/m3. For the same compound, the mass density (313.15 K, x2 = 0.123) was 1138.4 ± 1 kg/m3, the mass density (313.15 K, x2 = 0.183) was 1138.7 ± 0.9 kg/m3 and the mass density (313.15 K, x2 = 0.259) was 1139.3 ± 0.9 kg/m3. The mass density (313.15 K, x2 = 0.502) was 1141.1 ± 0.7 kg/m3, the mass density (313.15 K, x2 = 0.765) was 1135.9 ± 0.6 kg/m3 and the mass density (313.15 K, x2 = 0.88) was 1109.2 ± 1.4 kg/m3. It also gave a viscosity (323.15 K, x2 = 0.012) of 94 ± 4.4 mPa·s, a viscosity (323.15 K, x2 = 0.061) of 90.2 ± 4.2 mPa·s and a viscosity (323.15 K, x2 = 0.123) of 86.4 ± 4 mPa·s. The viscosity (323.15 K, x2 = 0.183) was 83.1 ± 3.8 mPa·s, the viscosity (323.15 K, x2 = 0.259) was 76.5 ± 3.5 mPa·s and the viscosity (323.15 K, x2 = 0.502) was 40.7 ± 1.8 mPa·s. It also gave a viscosity (323.15 K, x2 = 0.765) of 14 ± 0.6 mPa·s, a viscosity (323.15 K, x2 = 0.88) of 4.38 ± 0.22 mPa·s and a mass density (323.15 K, x2 = 0.012) of 1130.7 ± 1.2 kg/m3. The mass density (323.15 K, x2 = 0.061) was 1131.2 ± 1.1 kg/m3, the mass density (323.15 K, x2 = 0.123) was 1131.7 ± 1 kg/m3 and the mass density (323.15 K, x2 = 0.183) was 1132 ± 0.9 kg/m3. The mass density (323.15 K, x2 = 0.259) was 1132.6 ± 0.8 kg/m3, the mass density (323.15 K, x2 = 0.502) was 1134.3 ± 0.7 kg/m3 and the mass density (323.15 K, x2 = 0.765) was 1128.6 ± 0.6 kg/m3. It also gave a mass density (323.15 K, x2 = 0.88) of 1101.7 ± 1.3 kg/m3, a viscosity (333.15 K, x2 = 0.012) of 61.2 ± 2.8 mPa·s and a viscosity (333.15 K, x2 = 0.061) of 58.8 ± 2.6 mPa·s. The viscosity (333.15 K, x2 = 0.123) was 56.2 ± 2.5 mPa·s, the viscosity (333.15 K, x2 = 0.183) was 54.3 ± 2.4 mPa·s and the viscosity (333.15 K, x2 = 0.259) was 49.3 ± 2.2 mPa·s. For the same compound, the viscosity (333.15 K, x2 = 0.502) was 27.6 ± 1.2 mPa·s, the viscosity (333.15 K, x2 = 0.765) was 10.1 ± 0.5 mPa·s and the viscosity (333.15 K, x2 = 0.88) was 3.36 ± 0.16 mPa·s. The mass density (333.15 K, x2 = 0.012) was 1124.1 ± 1.1 kg/m3, the mass density (333.15 K, x2 = 0.061) was 1124.6 ± 1.1 kg/m3 and the mass density (333.15 K, x2 = 0.123) was 1125 ± 1 kg/m3. For the same compound, the mass density (333.15 K, x2 = 0.183) was 1125.4 ± 0.9 kg/m3, the mass density (333.15 K, x2 = 0.259) was 1126 ± 0.8 kg/m3 and the mass density (333.15 K, x2 = 0.502) was 1127.4 ± 0.7 kg/m3. It also gave a mass density (333.15 K, x2 = 0.765) of 1121.2 ± 0.6 kg/m3, a mass density (333.15 K, x2 = 0.88) of 1094 ± 1.3 kg/m3 and a viscosity (343.15 K, x2 = 0.012) of 42.1 ± 1.9 mPa·s. It also gave a viscosity (343.15 K, x2 = 0.061) of 40.4 ± 1.8 mPa·s, a viscosity (343.15 K, x2 = 0.123) of 38.6 ± 1.7 mPa·s and a viscosity (343.15 K, x2 = 0.183) of 37.4 ± 1.6 mPa·s. For the same compound, the viscosity (343.15 K, x2 = 0.259) was 34.1 ± 1.5 mPa·s, the viscosity (343.15 K, x2 = 0.502) was 19.6 ± 0.8 mPa·s and the viscosity (343.15 K, x2 = 0.765) was 7.58 ± 0.33 mPa·s. The viscosity (343.15 K, x2 = 0.88) was 2.67 ± 0.13 mPa·s, the mass density (343.15 K, x2 = 0.012) was 1117.5 ± 1.1 kg/m3 and the mass density (343.15 K, x2 = 0.061) was 1118 ± 1.1 kg/m3. It also gave a mass density (343.15 K, x2 = 0.123) of 1118.4 ± 1 kg/m3, a mass density (343.15 K, x2 = 0.183) of 1118.8 ± 0.9 kg/m3 and a mass density (343.15 K, x2 = 0.259) of 1119.3 ± 0.8 kg/m3. For the same compound, the mass density (343.15 K, x2 = 0.502) was 1120.5 ± 0.7 kg/m3, the mass density (343.15 K, x2 = 0.765) was 1113.8 ± 0.6 kg/m3 and the mass density (343.15 K, x2 = 0.88) was 1086.1 ± 1.3 kg/m3. For the same compound, the viscosity (353.15 K, x2 = 0.012) was 30.2 ± 1.3 mPa·s, the viscosity (353.15 K, x2 = 0.061) was 29 ± 1.3 mPa·s and the viscosity (353.15 K, x2 = 0.123) was 27.7 ± 1.2 mPa·s. The viscosity (353.15 K, x2 = 0.183) was 26.9 ± 1.2 mPa·s, the viscosity (353.15 K, x2 = 0.259) was 24.5 ± 1.1 mPa·s and the viscosity (353.15 K, x2 = 0.502) was 14.4 ± 0.6 mPa·s. It also gave a viscosity (353.15 K, x2 = 0.765) of 5.88 ± 0.25 mPa·s, a viscosity (353.15 K, x2 = 0.88) of 2.18 ± 0.1 mPa·s and a mass density (353.15 K, x2 = 0.012) of 1111 ± 1.1 kg/m3. The mass density (353.15 K, x2 = 0.061) was 1111.5 ± 1.1 kg/m3, the mass density (353.15 K, x2 = 0.123) was 1111.9 ± 1 kg/m3 and the mass density (353.15 K, x2 = 0.183) was 1112.1 ± 0.9 kg/m3. It also gave a mass density (353.15 K, x2 = 0.259) of 1112.7 ± 0.8 kg/m3, a mass density (353.15 K, x2 = 0.502) of 1113.7 ± 0.7 kg/m3 and a mass density (353.15 K, x2 = 0.765) of 1106.3 ± 0.6 kg/m3. For the same compound, the mass density (353.15 K, x2 = 0.88) was 1078.1 ± 1.3 kg/m3, the viscosity (363.15 K, x2 = 0.012) was 22.5 ± 1 mPa·s and the viscosity (363.15 K, x2 = 0.061) was 21.6 ± 0.9 mPa·s. For the same compound, the viscosity (363.15 K, x2 = 0.123) was 20.6 ± 0.9 mPa·s, the viscosity (363.15 K, x2 = 0.183) was 20 ± 0.9 mPa·s and the viscosity (363.15 K, x2 = 0.259) was 18.3 ± 0.8 mPa·s. It also gave a viscosity (363.15 K, x2 = 0.502) of 11.2 ± 0.5 mPa·s, a viscosity (363.15 K, x2 = 0.765) of 4.69 ± 0.2 mPa·s and a viscosity (363.15 K, x2 = 0.88) of 1.83 ± 0.09 mPa·s. It also gave a mass density (363.15 K, x2 = 0.012) of 1104.5 ± 1.1 kg/m3, a mass density (363.15 K, x2 = 0.061) of 1104.9 ± 1 kg/m3 and a mass density (363.15 K, x2 = 0.123) of 1105.2 ± 1 kg/m3. The mass density (363.15 K, x2 = 0.183) was 1105.6 ± 0.9 kg/m3, the mass density (363.15 K, x2 = 0.259) was 1106.1 ± 0.8 kg/m3 and the mass density (363.15 K, x2 = 0.502) was 1106.8 ± 0.7 kg/m3. The mass density (363.15 K, x2 = 0.765) was 1098.7 ± 0.6 kg/m3, the mass density (363.15 K, x2 = 0.88) was 1070 ± 0.8 kg/m3 and the viscosity (373.15 K, x2 = 0.012) was 17.3 ± 0.8 mPa·s. For the same compound, the viscosity (373.15 K, x2 = 0.061) was 16.5 ± 0.7 mPa·s, the viscosity (373.15 K, x2 = 0.123) was 15.8 ± 0.7 mPa·s and the viscosity (373.15 K, x2 = 0.183) was 15.3 ± 0.7 mPa·s. The viscosity (373.15 K, x2 = 0.259) was 14.1 ± 0.6 mPa·s, the viscosity (373.15 K, x2 = 0.502) was 8.9 ± 0.4 mPa·s and the viscosity (373.15 K, x2 = 0.765) was 3.83 ± 0.16 mPa·s. For the same compound, the viscosity (373.15 K, x2 = 0.88) was 1.55 ± 0.08 mPa·s, the mass density (373.15 K, x2 = 0.012) was 1098.2 ± 1.1 kg/m3 and the mass density (373.15 K, x2 = 0.061) was 1098.5 ± 1 kg/m3. The mass density (373.15 K, x2 = 0.123) was 1098.9 ± 1 kg/m3, the mass density (373.15 K, x2 = 0.183) was 1099.1 ± 0.9 kg/m3 and the mass density (373.15 K, x2 = 0.259) was 1099.6 ± 0.8 kg/m3. The mass density (373.15 K, x2 = 0.502) was 1099.9 ± 0.7 kg/m3, the mass density (373.15 K, x2 = 0.765) was 1091.2 ± 1 kg/m3 and the mass density (373.15 K, x2 = 0.88) was 1061.9 ± 0.8 kg/m3.
